Measurements reported in PMC7773179, “Development and application of high-throughput screens for the discovery of compounds that disrupt ErbB4 signaling: Candidate cancer therapeutics” (PLoS ONE, 2020).

Tested on: BaF3/EGFR+ErbB4 cells
Assay: IL3-dependent proliferation of BaF3/EGFR+ErbB4 cells, semi-automated MTT assay
Conditions: Mus musculus, BaF3, 120 h, read-out: IC50 against 0.1 nM IL3
Procedure: As noted earlier, the BaF3/EGFR+ErbB4 cells are IL3 dependent and this dependency can be rescued by stimulation of ErbB4 coupling to cell proliferation [8]. Therefore, the specificity of each of the 19 candidate ErbB4 inhibitors was tested by assaying inhibition of ErbB4-dependent and IL3-dependent cellular proliferation in parallel.

**Q.** How did the IC50 turn out when `CCC(=O)NC(N(Cc1ccccc1)Cc1ccccc1)C(Cl)(Cl)Cl` (centres unmarked) [SR-33483] was run?
**A.** The IC50 was 28000 nM.

**Q.** Which IC50 does the source give for `CCCOc1ccc(C(=O)C(CCCCC(CN(C)C)C(=O)c2ccc(OCCC)cc2)CN(C)C)cc1` (centres unmarked) [SR-33486] here?
**A.** Its IC50 is 450 nM.

**Q.** For `O=C(c1nn2c(c1Cl)NC(c1cccs1)CC2C(F)(F)F)N(Cc1ccccc1)Cc1ccccc1` (centres unmarked) [SR-33493], which IC50 is on record?
**A.** The IC50 was 15000 nM.

**Q.** Which IC50 does the source give for `O=C1NC(=O)/C(=C\c2ccc(OCc3ccc4ccccc4c3)c(I)c2)N1` [SR-33498] here?
**A.** The IC50 was 4800 nM.

**Q.** How did the IC50 turn out when `COc1cc(CNCC2CCNCC2)cc(Cl)c1OCc1ccc(C)cc1` [SR-33507] was run?
**A.** The IC50 was 720 nM.

**Q.** With `Cc1nn(-c2ccccc2)c2c1C(c1ccccc1F)SCC(=O)N2` (centres unmarked) [SR-33510] as the compound, how does the IC50 read?
**A.** The IC50 was 29000 nM.

**Q.** With `CCOc1ccc(CN(C(=O)[C@H](N)Cc2c[nH]c3ccccc23)C2CC2)cc1` [SR-33511] as the compound, how does the IC50 read?
**A.** The IC50 was 13000 nM.

Target: T1, ErbB4 (Homo sapiens, UniProt Q15303)
T1 construct: expressed in transfected cells; host or cells: CEM/ErbB4 cells
T1 sequence (Q15303 26-1308): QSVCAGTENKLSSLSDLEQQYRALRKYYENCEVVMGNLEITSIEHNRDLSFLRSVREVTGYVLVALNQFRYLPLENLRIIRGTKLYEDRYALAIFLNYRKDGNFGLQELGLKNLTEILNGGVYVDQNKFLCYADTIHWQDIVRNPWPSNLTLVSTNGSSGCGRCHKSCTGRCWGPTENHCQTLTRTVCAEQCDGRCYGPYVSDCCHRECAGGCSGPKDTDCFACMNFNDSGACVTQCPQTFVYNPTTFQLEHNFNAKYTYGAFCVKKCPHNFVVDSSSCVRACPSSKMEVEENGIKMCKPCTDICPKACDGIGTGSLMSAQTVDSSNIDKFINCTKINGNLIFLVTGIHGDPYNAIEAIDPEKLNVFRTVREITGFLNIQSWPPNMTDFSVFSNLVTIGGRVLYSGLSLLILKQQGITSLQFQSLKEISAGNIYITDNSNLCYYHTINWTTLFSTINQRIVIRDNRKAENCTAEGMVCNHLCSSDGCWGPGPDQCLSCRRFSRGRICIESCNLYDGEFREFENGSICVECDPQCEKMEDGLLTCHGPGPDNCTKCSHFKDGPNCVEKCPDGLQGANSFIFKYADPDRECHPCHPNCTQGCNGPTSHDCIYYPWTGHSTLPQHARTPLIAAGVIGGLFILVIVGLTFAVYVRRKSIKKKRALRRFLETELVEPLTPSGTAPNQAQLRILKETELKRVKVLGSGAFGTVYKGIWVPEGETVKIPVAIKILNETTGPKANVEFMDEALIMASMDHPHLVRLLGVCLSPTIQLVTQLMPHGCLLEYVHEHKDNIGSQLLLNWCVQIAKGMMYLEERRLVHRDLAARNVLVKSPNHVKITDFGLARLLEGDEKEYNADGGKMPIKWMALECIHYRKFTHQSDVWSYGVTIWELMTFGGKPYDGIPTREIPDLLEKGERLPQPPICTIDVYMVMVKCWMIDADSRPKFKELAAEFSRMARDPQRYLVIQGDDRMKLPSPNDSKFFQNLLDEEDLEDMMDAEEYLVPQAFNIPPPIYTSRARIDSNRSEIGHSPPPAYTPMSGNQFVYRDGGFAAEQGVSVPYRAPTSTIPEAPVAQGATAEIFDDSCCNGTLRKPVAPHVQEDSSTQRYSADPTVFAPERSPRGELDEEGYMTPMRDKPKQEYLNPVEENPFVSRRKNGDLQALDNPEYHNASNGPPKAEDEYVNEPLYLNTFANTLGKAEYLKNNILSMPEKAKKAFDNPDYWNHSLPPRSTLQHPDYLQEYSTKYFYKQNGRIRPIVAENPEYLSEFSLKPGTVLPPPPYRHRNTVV
Assay: phospho-ErbB4 sandwich ELISA: stimulation of ErbB4 tyrosine phosphorylation in CEM/ErbB4 cells
Assay type: cell-based
Conditions: percentage of ErbB4 tyrosine phosphorylation stimulated by 10 nM NRG1β; read-out: ErbB4 Tyrosine Phosphorylation Emax ± SE
Text: Our ultimate goal is the identification of ErbB4 partial agonists that inhibit coupling of ErbB4 to cell proliferation, preferably through stimulation of phosphorylation-dependent ErbB4 turnover and degradation. Thus, the first goal of these experiments is to develop and deploy an assay for stimulation of ErbB4 tyrosine phosphorylation. The CEM/ErbB4 cell line previously validated for assaying ligand-induced ErbB4 tyrosine phosphorylation was used to develop a 96-well assay for stimulation and inhibition of ErbB4 tyrosine phosphorylation. Briefly, ErbB4 tyrosine phosphorylation was assayed using a “sandwich” enzyme-linked immunosorbent assay (ELISA) kit (R&D Systems) that features an anti-ErbB4 capture antibody and an anti-phosphotyrosine detection antibody.
Lysates generated by a previously established protocol for stimulating ErbB4 tyrosine phosphorylation in CEM/ErbB4 cells were used to develop and evaluate the ELISA conditions. Briefly, the CEM/ErbB4 cells were starved for 24 hours in serum- and factor-free base medium (RPMI) before being stimulated for seven minutes on ice with NRG2β (full agonist positive control), NRG2β/Q43L (partial agonist positive control), or NRG2β diluent (mock stimulation negative control). The cells were then lysed, and the lysates were immediately assayed for ErbB4 tyrosine phosphorylation or stored at -80°C until assayed.
Ligand-induced ErbB4 tyrosine phosphorylation was stimulated using a published protocol. Briefly, the CEM/ErbB4 cells were starved for 24 hours in serum- and factor-free base medium (RPMI) before being stimulated for 7 minutes on ice with an ErbB4 ligand (NRG1β, NRG2β, or NRG2β/Q43L) or candidate small molecule ErbB4 partial agonists. The cells were then lysed using a published protocol, and the lysates were immediately assayed for ErbB4 tyrosine phosphorylation or stored at -80°C until assayed.
ErbB4 tyrosine phosphorylation was analyzed using a 96-well “sandwich” enzyme-linked immunosorbent assay (ELISA) kit from R&D Systems (Catalog number DYC2115-2), which features an anti-ErbB4 capture antibody and an anti-phosphotyrosine antibody that is coupled to horseradish peroxidase (HRP). First, each well in a 96-well flat-bottom plate (ELISA plate) was coated with the anti-ErbB4 capture antibody, which recognizes the amino terminus of ErbB4. Nonspecific binding sites were then treated with a blocking buffer (1% BSA in PBS). Lysate samples containing ErbB4 were then added to the wells and incubated to permit ErbB4 binding to the immobilized anti-ErbB4 antibody. Then, an anti-phosphotyrosine antibody tagged with HRP was used to detect and visualize the phosphorylated tyrosine residues of the immobilized ErbB4 molecules. Oxidation of 3,3´,5,5´-tetramethylbenzidine by HRP (stopped using sulfuric acid) is indicative of ErbB4 tyrosine phosphorylation and was detected by measuring absorption at 450 nm. The data generated during the course of validating these assay conditions can be found in a (S1 Data).
A Beckman Coulter Biomek 4000 automated liquid handling system was used to convert our standard, batch method for agonist stimulation of ErbB4 tyrosine phosphorylation to a semi-automated 96-well methodology. […] After stimulation, lysis buffer was added to each well and incubated for 20 minutes at 4°C with shaking. Following incubation, the plates were centrifuged at 3200 RCF for 20 minutes at 4°C.

**Q.** For `CCC(=O)NC(N(Cc1ccccc1)Cc1ccccc1)C(Cl)(Cl)Cl` (centres unmarked) [SR-33483], which Emax is on record?
**A.** Its Emax is 4.7 ± 1.1%.

**Q.** With `CCCOc1ccc(C(=O)C(CCCCC(CN(C)C)C(=O)c2ccc(OCCC)cc2)CN(C)C)cc1` (centres unmarked) [SR-33486] as the compound, how does the Emax read?
**A.** The Emax was 5.9 ± 2.8%.

**Q.** With `O=C(c1nn2c(c1Cl)NC(c1cccs1)CC2C(F)(F)F)N(Cc1ccccc1)Cc1ccccc1` (centres unmarked) [SR-33493] as the compound, how does the Emax read?
**A.** The Emax was 2.1 ± 3.8%.

**Q.** For `O=C1NC(=O)/C(=C\c2ccc(OCc3ccc4ccccc4c3)c(I)c2)N1` [SR-33498], which Emax is on record?
**A.** The Emax was 1.4 ± 0.4%.

**Q.** With `COc1cc(CNCC2CCNCC2)cc(Cl)c1OCc1ccc(C)cc1` [SR-33507] as the compound, how does the Emax read?
**A.** The Emax was 2.9 ± 0.4%.

**Q.** For `Cc1nn(-c2ccccc2)c2c1C(c1ccccc1F)SCC(=O)N2` (centres unmarked) [SR-33510], which Emax is on record?
**A.** Its Emax is 1.2 ± 0.4%.

**Q.** Which Emax does the source give for `CCOc1ccc(CN(C(=O)[C@H](N)Cc2c[nH]c3ccccc23)C2CC2)cc1` [SR-33511] here?
**A.** Its Emax is 5.2 ± 1%.

Same assay, conditions: semi-automated; 0–30 μM; at least three independent trials; read-out: ErbB4 Tyrosine Phosphorylation EC50 ± SE

**Q.** For `CCC(=O)NC(N(Cc1ccccc1)Cc1ccccc1)C(Cl)(Cl)Cl` (centres unmarked) [SR-33483], which EC50 is on record?
**A.** The EC50 was 470 ± 380 nM.

**Q.** For `CCCOc1ccc(C(=O)C(CCCCC(CN(C)C)C(=O)c2ccc(OCCC)cc2)CN(C)C)cc1` (centres unmarked) [SR-33486], which EC50 is on record?
**A.** Its EC50 is less than 300 nM.

**Q.** `O=C(c1nn2c(c1Cl)NC(c1cccs1)CC2C(F)(F)F)N(Cc1ccccc1)Cc1ccccc1` (centres unmarked) [SR-33493] was tested. Which EC50 did it give?
**A.** Its EC50 is less than 300 nM.

**Q.** With `O=C1NC(=O)/C(=C\c2ccc(OCc3ccc4ccccc4c3)c(I)c2)N1` [SR-33498] as the compound, how does the EC50 read?
**A.** The EC50 was 1500 ± 600 nM.

**Q.** With `COc1cc(CNCC2CCNCC2)cc(Cl)c1OCc1ccc(C)cc1` [SR-33507] as the compound, how does the EC50 read?
**A.** Its EC50 is less than 300 nM.

**Q.** How did the EC50 turn out when `Cc1nn(-c2ccccc2)c2c1C(c1ccccc1F)SCC(=O)N2` (centres unmarked) [SR-33510] was run?
**A.** Its EC50 is 2000 ± 800 nM.

**Q.** How did the EC50 turn out when `CCOc1ccc(CN(C(=O)[C@H](N)Cc2c[nH]c3ccccc23)C2CC2)cc1` [SR-33511] was run?
**A.** The EC50 was 2100 ± 1300 nM.

Tested on: BaF3/EGFR+ErbB4 cells
Assay: ErbB4-dependent (NRG1β-induced, IL3-independent) proliferation of BaF3/EGFR+ErbB4 cells, semi-automated MTT assay
Assay type: cell-based, Mouse
Conditions: ErbB4-dependent versus IL3-dependent proliferation
Procedure: This proliferation is dependent upon exogenous ErbB4 expression.
As noted earlier, the BaF3/EGFR+ErbB4 cells are IL3 dependent and this dependency can be rescued by stimulation of ErbB4 coupling to cell proliferation. Therefore, the specificity of each of the 19 candidate ErbB4 inhibitors was tested by assaying inhibition of ErbB4-dependent and IL3-dependent cellular proliferation in parallel.

**Q.** With `CCC(=O)NC(N(Cc1ccccc1)Cc1ccccc1)C(Cl)(Cl)Cl` (centres unmarked) [SR-33483] as the compound, how does the “selective and potent inhibition of ErbB4-dependent cell proliferation (in words)” value read?
**A.** The value was “selectively and potently inhibit”.

**Q.** For `CCCOc1ccc(C(=O)C(CCCCC(CN(C)C)C(=O)c2ccc(OCCC)cc2)CN(C)C)cc1` (centres unmarked) [SR-33486], which “selective and potent inhibition of ErbB4-dependent cell proliferation (in words)” value is on record?
**A.** The value was “selectively and potently inhibit”.

Same assay, conditions: Mus musculus, BaF3, read-out: IC50 against 0.3 nM NRG1β; three independent trials; 120 h MTT; NA = not active

**Q.** Which IC50 does the source give for `CCC(=O)NC(N(Cc1ccccc1)Cc1ccccc1)C(Cl)(Cl)Cl` (centres unmarked) [SR-33483] here?
**A.** Its IC50 is 6000 nM.

**Q.** Which IC50 does the source give for `CCCOc1ccc(C(=O)C(CCCCC(CN(C)C)C(=O)c2ccc(OCCC)cc2)CN(C)C)cc1` (centres unmarked) [SR-33486] here?
**A.** Its IC50 is 110 nM.

**Q.** With `O=C(c1nn2c(c1Cl)NC(c1cccs1)CC2C(F)(F)F)N(Cc1ccccc1)Cc1ccccc1` (centres unmarked) [SR-33493] as the compound, how does the IC50 read?
**A.** The IC50 was 5600 nM.

**Q.** How did the IC50 turn out when `O=C1NC(=O)/C(=C\c2ccc(OCc3ccc4ccccc4c3)c(I)c2)N1` [SR-33498] was run?
**A.** Its IC50 is 2300 nM.

**Q.** Which IC50 does the source give for `COc1cc(CNCC2CCNCC2)cc(Cl)c1OCc1ccc(C)cc1` [SR-33507] here?
**A.** Its IC50 is 390 nM.

**Q.** With `Cc1nn(-c2ccccc2)c2c1C(c1ccccc1F)SCC(=O)N2` (centres unmarked) [SR-33510] as the compound, how does the IC50 read?
**A.** The IC50 was 11000 nM.

**Q.** `CCOc1ccc(CN(C(=O)[C@H](N)Cc2c[nH]c3ccccc23)C2CC2)cc1` [SR-33511] was tested. Which IC50 did it give?
**A.** Its IC50 is 6800 nM.

Same assay, conditions: candidate 30 μM

**Q.** `COc1cc(CNCC2CCNCC2)cc(Cl)c1OCc1ccc(C)cc1` [SR-33507] was tested. Which “inhibition of NRG1β-stimulated ErbB4-dependent proliferation (in words)” value did it give?
**A.** The value was “completely inhibits”.

Same assay, conditions: candidate 30 μM; increasing NRG1β; three trials; 120 h MTT

**Q.** With `CCC(=O)NC(N(Cc1ccccc1)Cc1ccccc1)C(Cl)(Cl)Cl` (centres unmarked) [SR-33483] as the compound, how does the “NRG1β Emax ± SE in the presence of candidate” value (from here on “NRG1β Emax ± SE”) read?
**A.** Its value is 0 AU.

**Q.** How did the “NRG1β Emax ± SE” value turn out when `CCCOc1ccc(C(=O)C(CCCCC(CN(C)C)C(=O)c2ccc(OCCC)cc2)CN(C)C)cc1` (centres unmarked) [SR-33486] was run?
**A.** The value was 0 AU.

**Q.** How did the “NRG1β Emax ± SE” value turn out when `O=C(c1nn2c(c1Cl)NC(c1cccs1)CC2C(F)(F)F)N(Cc1ccccc1)Cc1ccccc1` (centres unmarked) [SR-33493] was run?
**A.** The value was 0 AU.

**Q.** With `O=C1NC(=O)/C(=C\c2ccc(OCc3ccc4ccccc4c3)c(I)c2)N1` [SR-33498] as the compound, how does the “NRG1β Emax ± SE” value read?
**A.** Its value is 0 AU.

**Q.** `COc1cc(CNCC2CCNCC2)cc(Cl)c1OCc1ccc(C)cc1` [SR-33507] was tested. Which “NRG1β Emax ± SE” value did it give?
**A.** The value was 0 AU.

**Q.** For `Cc1nn(-c2ccccc2)c2c1C(c1ccccc1F)SCC(=O)N2` (centres unmarked) [SR-33510], which “NRG1β Emax ± SE” value is on record?
**A.** Its value is 0.03 ± 0.01 AU.

**Q.** How did the “NRG1β Emax ± SE” value turn out when `CCOc1ccc(CN(C(=O)[C@H](N)Cc2c[nH]c3ccccc23)C2CC2)cc1` [SR-33511] was run?
**A.** The value was 0 AU.
